# Assay results published in patent publication US8912121B2, “Herbicidal compositions comprising 4-amino-3-chloro-5-fluoro-6-(4-chloro-2-fluoro-3-methoxyphenyl)pyridine-2-carboxylic acid or a derivative thereof and certain PS II inhibitors” (Dow Agrosciences LLC, priority 2012, dated 2014).
# Assays:
# [1] = tested on: SASKR (Salsola tragus, Russian thistle); assay: Postemergence herbicidal activity of mixtures in cereal crops, greenhouse; format: in vivo, Salsola tragus L.
# Procedure: (§1) Seeds of the desired test plant species were planted in Sun Gro MetroMix® 306 planting mixture, which typically has a pH of 6.0 to 6.8 and an organic matter content of about 30 percent, in plastic pots with a surface area of 103.2 square centimeters (cm^2). When required to ensure good germination and healthy plants, a fungicide treatment and/or other chemical or physical treatment was applied. The plants were grown for 7-36 days in a greenhouse with an approximate 14 hour photoperiod which was maintained at about 18° C. during the day and about 17° C. during the night. Nutrients and water were added on a regular basis and supplemental lighting was provided with overhead metal halide 1000-Watt lamps as necessary. The plants were employed for testing when they reached the second or third true leaf stage.
# (§2) Treatments consisted of the benzyl ester of 4-amino-3-chloro-5-fluoro-6-(4-chloro-2-fluoro-3-methoxy-phenyl)pyridine-2-carboxylic acid (Compound A), formulated as an SC, a second cereal herbicide alone and then both in combination.
# (§3) Other herbicidal components were applied on an active ingredient basis and included PSII-inhibiting herbicides.
# (§4) Measured aliquots of benzyl ester of 4-amino-3-chloro-5-fluoro-6-(4-chloro-2-fluoro-3-methoxy-phenyl)pyridine-2-carboxylic acid (Compound A) were placed in 25 milliliter (mL) glass vials and diluted in a volume of 1.25% (v/v) Agri-Dex® crop oil concentrate to obtain stock solutions. Compound requirements are based upon a 12 mL application volume at a rate of 187 liters per hectare (L/ha). Spray solutions of the second cereal herbicide and experimental compound mixtures were prepared by adding the stock solutions to the appropriate amount of dilution solution to form 12 mL spray solution with active ingredients in two- and three-way combinations. Formulated compounds were applied to the plant material with an overhead Mandel track sprayer equipped with an 8002E nozzle calibrated to deliver 187 L/ha over an application area of 0.503 square meters (m^2) at a spray height of 18 inches (46 cm) above average plant canopy. Control plants were sprayed in the same manner with the solvent blank.
# (§5) The treated plants and control plants were placed in a greenhouse as described above and watered by sub-irrigation to prevent wash-off of the test compounds. After 20-22 days, the condition of the test plants as compared with that of the control plants was determined visually and scored on a scale of 0 to 100 percent where 0 corresponds to no injury and 100 corresponds to complete kill.
# Colby's equation was used to determine the herbicidal effects expected from the mixtures (Colby, S. R. 1967. Calculation of the synergistic and antagonistic response of herbicide combinations. Weeds 15:20-22).
# The following equation was used to calculate the expected activity of mixtures containing two active ingredients, A and B: Expected=A+B−(A×B/100)
# [2] = tested on: CHEAL (Chenopodium album, common lambsquarters); assay: as above; format: in vivo, Chenopodium album L.
# Procedure: as §1, §2, §3, §4, §5
# Colby's equation was used to determine the herbicidal effects expected from the mixtures (Colby, S. R. 1967. Calculation of the synergistic and antagonistic response of herbicide combinations. Weeds 15:20-22). […]
# [3] = Compound A Benzyl Ester 2.5 g ai/ha
# [4] = Compound A Benzyl Ester 5 g ai/ha
smiles,measurement,setting,value
"COc1c(Cl)ccc(-c2nc(C(=O)OCc3ccccc3)c(Cl)c(N)c2F)c1F [Compound A Benzyl Ester, benzyl ester of 4-amino-3-chloro-5-fluoro-6-(4-chloro-2-fluoro-3-methoxy-phenyl)pyridine-2-carboxylic acid]",Visual Weed Control (%)-21 DAA SASKR Obs,[1]; [3],15%
same,Visual Weed Control (%)-21 DAA SASKR Obs,[1]; [4],50%
same,Visual Weed Control (%)-21 DAA SASKR Obs,[1]; Compound A Benzyl Ester 10 g ai/ha,67%
same,Visual Weed Control (%)-21 DAA CHEAL Obs,[2]; [3],50%
same,Visual Weed Control (%)-21 DAA CHEAL Obs,[2]; [4],58%
